From PubChem BioAssay (NCI)
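Where inhibition never reached the appropriate level, the endpoint shown equals the highest concentration tested. Otherwise, values were interpolated linearly from a five-concentration, 48-hour dose response in 96-well plates. TGI: total growth inhibition.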

Tests used:
Assay in all cases: DTP human tumour cell line panel, 48 h
SNB-75 CNS = tested on: SNB-75 CNS
SK-OV-3 ovarian = tested on: SK-OV-3 ovarian
IGROV1 ovarian = tested on: IGROV1 ovarian
M14 melanoma = tested on: M14 melanoma
UO-31 renal = tested on: UO-31 renal
RXF 393 renal = tested on: RXF 393 renal
SN12C renal = tested on: SN12C renal
MDA-N = tested on: MDA-N
UACC-62 melanoma = tested on: UACC-62 melanoma
SF-295 CNS = tested on: SF-295 CNS

Structure (SMILES): N/C(=N\Nc1ccc(Cl)cc1)c1cnccn1
- TGI (SNB-75 CNS): > 100 µM
- TGI (SK-OV-3 ovarian): > 100 µM
- TGI (IGROV1 ovarian): > 100 µM
- TGI (M14 melanoma): > 100 µM
- TGI (UO-31 renal): > 100 µM
- TGI (RXF 393 renal): > 100 µM
- TGI (SN12C renal): > 100 µM
- TGI (MDA-N): > 100 µM
- TGI (UACC-62 melanoma): > 100 µM
- TGI (SF-295 CNS): > 100 µM

Structure (SMILES): CC(C)(C)NC(=O)/C(=C\Sc1ccccc1)c1ccccc1
- TGI (SNB-75 CNS): > 100 µM
- TGI (SK-OV-3 ovarian): > 100 µM
- TGI (IGROV1 ovarian): > 100 µM
- TGI (M14 melanoma): > 100 µM
- TGI (UO-31 renal): > 100 µM
- TGI (RXF 393 renal): > 100 µM
- TGI (SN12C renal): > 100 µM
- TGI (MDA-N): > 100 µM
- TGI (UACC-62 melanoma): > 100 µM
- TGI (SF-295 CNS): > 100 µM

Structure (SMILES): CC1(C)C2CCC1C(=O)[C@@]1(C=CC(=O)CC1)C2 (stereo not given in full)
- TGI (SNB-75 CNS): > 100 µM
- TGI (SK-OV-3 ovarian): > 100 µM
- TGI (IGROV1 ovarian): > 100 µM
- TGI (M14 melanoma): > 100 µM
- TGI (UO-31 renal): > 100 µM
- TGI (RXF 393 renal): > 100 µM
- TGI (SN12C renal): > 100 µM
- TGI (MDA-N): > 100 µM
- TGI (UACC-62 melanoma): > 100 µM
- TGI (SF-295 CNS): > 100 µM

Structure (SMILES): O=c1c2cnccc2cc2c3ccccc3ccn12
- TGI (SNB-75 CNS): > 100 µM
- TGI (SK-OV-3 ovarian): > 100 µM
- TGI (IGROV1 ovarian): 33.3 µM
- TGI (M14 melanoma): > 100 µM
- TGI (UO-31 renal): > 100 µM
- TGI (RXF 393 renal): > 100 µM
- TGI (SN12C renal): > 100 µM
- TGI (MDA-N): > 100 µM
- TGI (UACC-62 melanoma): > 100 µM
- TGI (SF-295 CNS): > 100 µM

Structure (SMILES): COC(=O)C(Cc1c[nH]c2ccccc12)NP(=O)(O)OCC1OC(n2cc(Br)c(=O)[nH]c2=O)CC1O (stereo not given)
- TGI (SNB-75 CNS): > 100 µM
- TGI (SK-OV-3 ovarian): > 100 µM
- TGI (IGROV1 ovarian): > 100 µM
- TGI (M14 melanoma): > 100 µM
- TGI (UO-31 renal): > 100 µM
- TGI (RXF 393 renal): > 100 µM
- TGI (SN12C renal): > 100 µM
- TGI (MDA-N): > 100 µM
- TGI (UACC-62 melanoma): > 100 µM
- TGI (SF-295 CNS): > 100 µM

Structure (SMILES): O=[N+]([O-])/C=C(\CS(=O)(=O)c1ccccc1)c1ccc2c(c1)OCO2
- TGI (SNB-75 CNS): > 100 µM
- TGI (SK-OV-3 ovarian): > 100 µM
- TGI (IGROV1 ovarian): > 100 µM
- TGI (M14 melanoma): 71.4 µM
- TGI (UO-31 renal): 98.7 µM
- TGI (RXF 393 renal): > 100 µM
- TGI (SN12C renal): > 100 µM
- TGI (MDA-N): > 100 µM
- TGI (UACC-62 melanoma): > 100 µM
- TGI (SF-295 CNS): > 100 µM
